Patent US10130642B2, “Neprilysin inhibitors” (THERAVANCE BIOPHARMA R&D IP, LLC, priority 2011, dated 2018)

What follows are compounds tested against human NEP (Homo sapiens (Human), UniProt P08473) (assay: In vitro enzyme inhibition assay, inhibitor potencies at human NEP). Settings: not given.
human NEP, sequence (P08473 52-750): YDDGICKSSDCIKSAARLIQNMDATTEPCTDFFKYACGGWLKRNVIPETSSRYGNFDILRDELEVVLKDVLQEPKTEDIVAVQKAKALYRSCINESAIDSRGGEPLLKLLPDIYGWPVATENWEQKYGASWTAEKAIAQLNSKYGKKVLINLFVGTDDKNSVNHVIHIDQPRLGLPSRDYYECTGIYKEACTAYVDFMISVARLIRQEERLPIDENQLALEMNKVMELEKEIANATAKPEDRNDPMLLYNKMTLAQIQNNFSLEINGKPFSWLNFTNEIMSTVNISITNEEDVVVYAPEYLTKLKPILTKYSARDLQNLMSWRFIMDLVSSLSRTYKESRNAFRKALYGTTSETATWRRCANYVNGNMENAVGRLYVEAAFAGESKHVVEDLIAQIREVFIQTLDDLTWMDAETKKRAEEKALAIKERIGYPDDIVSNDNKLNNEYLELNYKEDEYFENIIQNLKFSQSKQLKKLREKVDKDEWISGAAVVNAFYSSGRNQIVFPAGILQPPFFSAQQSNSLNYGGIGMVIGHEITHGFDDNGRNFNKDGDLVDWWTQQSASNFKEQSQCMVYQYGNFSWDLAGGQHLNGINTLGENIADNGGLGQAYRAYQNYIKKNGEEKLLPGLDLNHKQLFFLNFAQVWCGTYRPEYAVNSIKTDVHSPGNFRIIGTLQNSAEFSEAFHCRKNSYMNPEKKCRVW

**Q.** Which Ki does the source give for `C[C@@](CO)(C[C@@H](Cc1ccc(-c2ccccc2)cc1)NC(=O)c1nc(O)n[nH]1)C(=O)O` [Example 6-2, (2S,4R)-5-Biphenyl-4-yl-2-hydroxymethyl-4-[(5-hydroxy-2H-[1,2,4]triazole-3-carbonyl)-amino]-2-methyl-pentanoic acid] here?
**A.** 12.6 to 100 nM

**Q.** With `C[C@](CO)(C[C@@H](Cc1ccc(-c2ccccc2)cc1)NC(=O)c1cnn[nH]1)C(=O)O` [Example 6-3, (2R,4R)-5-Biphenyl-4-yl-2-hydroxymethyl-2-methyl-4-[(3H-[1,2,3]triazole-4-carbonyl)-amino]-pentanoic acid] as the compound, how does the Ki read?
**A.** 12.6 to 100 nM

**Q.** For `C[C@@](CO)(C[C@@H](Cc1ccc(-c2ccccc2)cc1)NC(=O)c1cn(O)nn1)C(=O)O` [Example 6-4, (2S,4R)-5-Biphenyl-4-yl-2-hydroxymethyl-4-[(1-hydroxy-1H-[1,2,3]triazole-4-carbonyl)-amino]-2-methyl-pentanoic acid], which Ki is on record?
**A.** ≤ 1 nM

**Q.** Which Ki does the source give for `C[C@@](CO)(C[C@@H](Cc1ccc(-c2ccccc2)cc1)NC(=O)c1cn(Cc2ccccc2)nn1)C(=O)O` [Example 6-6, (2S,4R)-4-[(1-Benzyl-1H-[1,2,3]triazole-4-carbonyl)-amino]-5-biphenyl-4-yl-2-hydroxymethyl-2-methyl-pentanoic acid] here?
**A.** 12.6 to 100 nM

**Q.** `CC(CO)(C[C@@H](Cc1ccc(-c2ccccc2)cc1)NC(=O)c1cc(C(=O)O)n[nH]1)C(=O)O` (stereo partly drawn) [Example 6-15, 5-((R)-1-Biphenyl-4-ylmethyl-3-carboxy-4-hydroxy-3-methyl-butylcarbamoyl)-1H-pyrazole-3-carboxylic acid] was tested. Which Ki did it give?
**A.** ≤ 1 nM

**Q.** How did the Ki turn out when `CC(=O)c1cc(C(=O)N[C@H](Cc2ccc(-c3ccccc3)cc2)C[C@@](C)(CO)C(=O)O)[nH]n1` [Example 6-16, (2S,4R)-4-[(5-Acetyl-2H-pyrazole-3-carbonyl)-amino]-5-biphenyl-4-yl-2-hydroxymethyl-2-methyl-pentanoic acid] was run?
**A.** 12.6 to 100 nM

**Q.** With `C[C@@](CO)(C[C@@H](Cc1ccc(-c2ccccc2)cc1)NC(=O)c1cc(O)n[nH]1)C(=O)O` [Example 6-17, (2S,4R)-5-Biphenyl-4-yl-2-hydroxymethyl-4-[(5-hydroxy-2H-pyrazole-3-carbonyl)-amino]-2-methyl-pentanoic acid] as the compound, how does the Ki read?
**A.** 1.26 to 10 nM

**Q.** With `C[C@@](CO)(C[C@@H](Cc1ccc(-c2ccccc2)cc1)NC(=O)c1cnc(O)nc1)C(=O)O` [Example 6-18, (2S,4R)-5-Biphenyl-4-yl-2-hydroxymethyl-4-[(2-hydroxy-pyrimidine-5-carbonyl)-amino]-2-methyl-pentanoic acid] as the compound, how does the Ki read?
**A.** ≤ 1 nM

**Q.** `C[C@@](CO)(C[C@@H](Cc1ccc(-c2ccccc2)cc1)NC(=O)c1cc(O)no1)C(=O)O` [Example 6-19, (2S,4R)-5-Biphenyl-4-yl-4-[(3-hydroxy-isoxazole-5-carbonyl)-amino]-2-hydroxymethyl-2-methyl-pentanoic acid] was tested. Which Ki did it give?
**A.** ≤ 1 nM

**Q.** For `C[C@@](CO)(C[C@@H](Cc1ccc(-c2cccc(F)c2)cc1)NC(=O)c1cnn[nH]1)C(=O)O` [Example 8-1, (2S,4R)-5-(3′-Fluorobiphenyl-4-yl)-2-hydroxymethyl-2-methyl-4-[(3H-[1,2,3]triazole-4-carbonyl)-amino]-pentanoic acid], which Ki is on record?
**A.** ≤ 1 nM

**Q.** How did the Ki turn out when `C[C@@](CO)(C[C@@H](Cc1ccc(-c2ccccc2F)cc1)NC(=O)c1cnn[nH]1)C(=O)O` [Example 8-2, (2S,4R)-5-(2′-Fluorobiphenyl-4-yl)-2-hydroxymethyl-2-methyl-4-[(3H-[1,2,3]triazole-4-carbonyl)-amino]-pentanoic acid] was run?
**A.** ≤ 1 nM

**Q.** For `C[C@@](CO)(C[C@@H](Cc1ccc(-c2ccc(F)cc2)cc1)NC(=O)c1cnn[nH]1)C(=O)O` [Example 8-3, (2S,4R)-5-(4′-Fluorobiphenyl-4-yl)-2-hydroxymethyl-2-methyl-4-[(3H-[1,2,3]triazole-4-carbonyl)-amino]-pentanoic acid], which Ki is on record?
**A.** 12.6 to 100 nM

**Q.** For `C[C@@](CO)(C[C@@H](Cc1ccc(-c2ccccc2F)cc1)NC(=O)c1cn(O)nn1)C(=O)O` [Example 8-4, (2S,4R)-5-(2′-Fluoro-biphenyl-4-yl)-2-hydroxymethyl-4-[(1-hydroxy-1H-[1,2,3]triazole-4-carbonyl)-amino]-2-methyl-pentanoic acid], which Ki is on record?
**A.** ≤ 1 nM

**Q.** For `C[C@@](CO)(C[C@@H](Cc1ccc(-c2ccccc2F)cc1)NC(=O)c1coc(=O)[nH]1)C(=O)O` [Example 8-5, (2S,4R)-5-(2′-Fluoro-biphenyl-4-yl)-2-hydroxymethyl-2-methyl-4-[(2-oxo-2,3-dihydro-oxazole-4-carbonyl)-amino]-pentanoic acid], which Ki is on record?
**A.** ≤ 1 nM

**Q.** Which Ki does the source give for `C[C@@](CO)(C[C@@H](Cc1ccc(-c2ccccc2F)cc1)NC(=O)c1c[nH]c(=O)o1)C(=O)O` [Example 8-6, (2S,4R)-5-(2′-Fluoro-biphenyl-4-yl)-2-hydroxymethyl-2-methyl-4-[(2-oxo-2,3-dihydro-oxazole-5-carbonyl)-amino]-pentanoic acid] here?
**A.** ≤ 1 nM

**Q.** Which Ki does the source give for `CC(C)(c1ccc(-c2ccccc2)cc1)[C@H](C[C@@H](CO)C(=O)O)NC(=O)c1cc(O)no1` [Example 9, (2S,4S)-5-Biphenyl-4-yl-4-[(3-hydroxy-isoxazole-5-carbonyl)-amino]-2-hydroxymethyl-5-methyl-hexanoic Acid] here?
**A.** ≤ 1 nM

**Q.** With `CC(C)(c1ccc(-c2ccccc2)cc1)[C@H](C[C@@H](CO)C(=O)O)NC(=O)c1cn(O)nn1` [Example 10-1, (2S,4S)-5-Biphenyl-4-yl-2-hydroxymethyl-4-[(1-hydroxy-1H-[1,2,3]triazole-4-carbonyl)-amino]-5-methyl-hexanoic acid] as the compound, how does the Ki read?
**A.** ≤ 1 nM

**Q.** `CC(C)(c1ccc(-c2ccccc2)cc1)[C@H](C[C@@H](CO)C(=O)O)NC(=O)c1cnn[nH]1` [Example 10-2, (2S,4S)-5-Biphenyl-4-yl-2-hydroxymethyl-5-methyl-4-[(3H-[1,2,3]triazole-4-carbonyl)-amino]-hexanoic acid] was tested. Which Ki did it give?
**A.** ≤ 1 nM

Same assay, conditions: pKi values at human NEP; recombinant human NEP, fluorogenic peptide substrate, 37° C.

**Q.** Which pKi does the source give for `C[C@@](CO)(C[C@@H](Cc1ccc(-c2cccc(F)c2)cc1)NC(=O)c1cc(C(=O)O)n[nH]1)C(=O)O` [Example 7, 5-[(1R,3S)-3-Carboxy-1-(3′-fluorobiphenyl-4-ylmethyl)-4-hydroxy-3-methyl-butylcarbamoyl]-1H-pyrazole-3-carboxylic Acid] here?
**A.** ≥9.0
